Values of other authors, collected in patent US20170258815A1, “CORTICOSTEROID FORMULATIONS AND METHODS FOR THE TREATMENT OF JOINT PAIN IN PATIENTS WITH DIABETES” (Flexion Therapeutics, Inc., priority 2016, published 2017).

Test system: patients with controlled DM and OA of the knee

| SMILES | Levels of blood glucose after IA injection compared with IA hyaluronic acid |
| --- | --- |
| CC1(C)O[C@@H]2C[C@H]3[C@@H]4CCC5=CC(=O)C=C[C@]5(C)[C@@]4(F)[C@@H](O)C[C@]3(C)[C@]2(C(=O)CO)O1 [TCA, Triamcinolone acetonide] | significantly increased levels of blood glucose |
| CC(C)(C)CC(=O)OCC(=O)[C@@]12OC(C)(C)O[C@@H]1C[C@H]1[C@@H]3CCC4=CC(=O)C=C[C@]4(C)[C@@]3(F)[C@@H](O)C[C@@]12C [triamcinolone hexacetonide] | significantly increased levels of blood glucose |
